From patent publication US11149054B2, “Oxysterols and methods of use thereof” (Sage Therapeutics, Inc., priority 2016, dated 2021)
Like-named read-outs stand apart in the source and are kept apart here.

Columns and labels:
[1] = molecular target: GlunN1/GluN2A glutamate receptors (Homo sapiens (Human), UniProt Q05586+Q12879); assay: Whole-cell patch clamp of mammalian cells (Ionworks Barracuda), positive allosteric modulation, GluN1/GluN2A; format: cell-based
Method: (§1) The measurements were performed using Ion Works Barracuda platform following this procedure:
(§2) Electrophysiological Procedures:
(§3) • a) Intracellular solution (mM): 50 mM CsCl, 90 mM CsF, 2 mM MgCl2, 5 mM EGTA, 10 mM HEPES. Adjust to pH 7.2 with CsOH. • b) Extracellular solution, HB-PS (composition in mM): NaCl, 137; KCl, 1.0; CaCl2), 5; HEPES, 10; Glucose, 10; pH adjusted to 7.4 with NaOH (refrigerated until use). • c) Holding potential: −70 mV, potential during agonist/PAM application: −40 mV. Recording Procedure: • a) Extracellular buffer will be loaded into the PPC plate wells (11 μL per well). Cell suspension will be pipetted into the wells (9 μL per well) of the PPC planar electrode. • b) Whole-cell recording configuration will be established via patch perforation with membrane currents recorded by on-board patch clamp amplifiers. • c) Two recordings (scans) will be performed. First, during pre-application of test article alone (duration of pre-application—[…]) and second, during test articles and agonist (EC20 L-glutamate and 30 μM glycine) co-application to detect positive modulatory effects of the test article. […] Potentiating Effect of Positive Allosteric Modulators (PAM) on the Channel
(§4) PAM concentration-response data will be fitted to an equation of the form: % Activation=% L-glutamate EC20+{(% MAX−% L-glutamate EC20)/[1+([Test]/EC50)^N]}, where [Test] will be the concentration of PAM (test article), EC50 will be the concentration of PAM producing half-maximal activation, N will be the Hill coefficient, % L-glutamate EC20 will be the percentage of the current Elicited with L-glutamate EC20, % MAX is the percentage of the current activated with the highest dose of PAM co-admitted with L-glutamate EC20 and % Activation will be the percentage of the current elicited with L-glutamate EC10-30 at each PAM concentration. The maximal amplitude of the evoked currents are measured and defined as Peak Current Amplitude (PCA).

[2] = molecular target: GluN2B glutamate receptors (Homo sapiens (Human), UniProt Q05586+Q13224); assay: Whole-cell patch clamp of mammalian cells (Ionworks Barracuda), positive allosteric modulation, GluN2B; format: cell-based; conditions: for Emax: read-out: Avg Emax 2B (%)
Method: as §1, §2, §3, §4

[3] = HEK293 cells, % potentiation of current elicited with EC20 L-glutamate and 30 μM glycine, read-out: Avg Emax 2A (%)
[4] = % potentiation of current elicited with EC20 L-glutamate and 30 μM glycine
[5] = HEK293 cells, co-application with EC20 L-glutamate and 30 μM glycine, 8-point concentration-response, read-out: Avg EC50 2A
[6] = co-application with EC20 L-glutamate and 30 μM glycine, 8-point concentration-response, read-out: Avg EC50 2B

GlunN1/GluN2A glutamate receptors, sequence (Q12879 23-1464, other chains not shown): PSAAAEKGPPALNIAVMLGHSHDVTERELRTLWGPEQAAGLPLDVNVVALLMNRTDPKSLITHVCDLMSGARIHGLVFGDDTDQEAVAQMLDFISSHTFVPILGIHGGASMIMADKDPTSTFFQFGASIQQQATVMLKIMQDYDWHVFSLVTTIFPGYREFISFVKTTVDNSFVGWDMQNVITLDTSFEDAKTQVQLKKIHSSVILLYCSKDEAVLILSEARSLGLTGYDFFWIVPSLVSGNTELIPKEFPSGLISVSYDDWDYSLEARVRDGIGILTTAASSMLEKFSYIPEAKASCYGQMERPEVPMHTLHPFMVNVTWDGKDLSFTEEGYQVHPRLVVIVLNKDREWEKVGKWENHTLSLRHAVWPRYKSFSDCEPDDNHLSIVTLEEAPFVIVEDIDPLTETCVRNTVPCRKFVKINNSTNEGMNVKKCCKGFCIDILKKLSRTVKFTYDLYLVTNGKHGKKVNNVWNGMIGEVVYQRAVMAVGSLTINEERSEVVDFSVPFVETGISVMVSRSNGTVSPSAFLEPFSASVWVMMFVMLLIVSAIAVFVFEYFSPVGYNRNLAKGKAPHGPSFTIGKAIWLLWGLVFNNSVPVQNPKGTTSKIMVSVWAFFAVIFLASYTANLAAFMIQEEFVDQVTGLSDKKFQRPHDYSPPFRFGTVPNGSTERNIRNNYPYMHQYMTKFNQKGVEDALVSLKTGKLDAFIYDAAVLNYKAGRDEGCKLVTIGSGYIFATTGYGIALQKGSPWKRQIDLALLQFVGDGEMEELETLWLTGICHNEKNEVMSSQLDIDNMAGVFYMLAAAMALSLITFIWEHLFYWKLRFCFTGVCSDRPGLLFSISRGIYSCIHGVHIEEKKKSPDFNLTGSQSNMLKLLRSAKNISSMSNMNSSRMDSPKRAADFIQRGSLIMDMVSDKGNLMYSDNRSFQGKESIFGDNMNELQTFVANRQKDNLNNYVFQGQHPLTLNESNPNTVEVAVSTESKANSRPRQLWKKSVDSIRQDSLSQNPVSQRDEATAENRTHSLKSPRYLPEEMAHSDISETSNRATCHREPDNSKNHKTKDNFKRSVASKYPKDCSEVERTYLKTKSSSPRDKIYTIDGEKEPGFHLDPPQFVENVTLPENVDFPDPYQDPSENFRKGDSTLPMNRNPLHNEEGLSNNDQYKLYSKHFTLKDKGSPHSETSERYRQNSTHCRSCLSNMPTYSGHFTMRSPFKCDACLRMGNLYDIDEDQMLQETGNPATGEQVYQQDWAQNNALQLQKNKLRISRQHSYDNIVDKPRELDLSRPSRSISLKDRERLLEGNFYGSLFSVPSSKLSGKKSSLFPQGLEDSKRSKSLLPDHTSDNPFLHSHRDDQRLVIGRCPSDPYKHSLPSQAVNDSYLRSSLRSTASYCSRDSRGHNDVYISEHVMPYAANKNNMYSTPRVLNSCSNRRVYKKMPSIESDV
GluN2B glutamate receptors, sequence (Q13224 27-1484, other chains not shown): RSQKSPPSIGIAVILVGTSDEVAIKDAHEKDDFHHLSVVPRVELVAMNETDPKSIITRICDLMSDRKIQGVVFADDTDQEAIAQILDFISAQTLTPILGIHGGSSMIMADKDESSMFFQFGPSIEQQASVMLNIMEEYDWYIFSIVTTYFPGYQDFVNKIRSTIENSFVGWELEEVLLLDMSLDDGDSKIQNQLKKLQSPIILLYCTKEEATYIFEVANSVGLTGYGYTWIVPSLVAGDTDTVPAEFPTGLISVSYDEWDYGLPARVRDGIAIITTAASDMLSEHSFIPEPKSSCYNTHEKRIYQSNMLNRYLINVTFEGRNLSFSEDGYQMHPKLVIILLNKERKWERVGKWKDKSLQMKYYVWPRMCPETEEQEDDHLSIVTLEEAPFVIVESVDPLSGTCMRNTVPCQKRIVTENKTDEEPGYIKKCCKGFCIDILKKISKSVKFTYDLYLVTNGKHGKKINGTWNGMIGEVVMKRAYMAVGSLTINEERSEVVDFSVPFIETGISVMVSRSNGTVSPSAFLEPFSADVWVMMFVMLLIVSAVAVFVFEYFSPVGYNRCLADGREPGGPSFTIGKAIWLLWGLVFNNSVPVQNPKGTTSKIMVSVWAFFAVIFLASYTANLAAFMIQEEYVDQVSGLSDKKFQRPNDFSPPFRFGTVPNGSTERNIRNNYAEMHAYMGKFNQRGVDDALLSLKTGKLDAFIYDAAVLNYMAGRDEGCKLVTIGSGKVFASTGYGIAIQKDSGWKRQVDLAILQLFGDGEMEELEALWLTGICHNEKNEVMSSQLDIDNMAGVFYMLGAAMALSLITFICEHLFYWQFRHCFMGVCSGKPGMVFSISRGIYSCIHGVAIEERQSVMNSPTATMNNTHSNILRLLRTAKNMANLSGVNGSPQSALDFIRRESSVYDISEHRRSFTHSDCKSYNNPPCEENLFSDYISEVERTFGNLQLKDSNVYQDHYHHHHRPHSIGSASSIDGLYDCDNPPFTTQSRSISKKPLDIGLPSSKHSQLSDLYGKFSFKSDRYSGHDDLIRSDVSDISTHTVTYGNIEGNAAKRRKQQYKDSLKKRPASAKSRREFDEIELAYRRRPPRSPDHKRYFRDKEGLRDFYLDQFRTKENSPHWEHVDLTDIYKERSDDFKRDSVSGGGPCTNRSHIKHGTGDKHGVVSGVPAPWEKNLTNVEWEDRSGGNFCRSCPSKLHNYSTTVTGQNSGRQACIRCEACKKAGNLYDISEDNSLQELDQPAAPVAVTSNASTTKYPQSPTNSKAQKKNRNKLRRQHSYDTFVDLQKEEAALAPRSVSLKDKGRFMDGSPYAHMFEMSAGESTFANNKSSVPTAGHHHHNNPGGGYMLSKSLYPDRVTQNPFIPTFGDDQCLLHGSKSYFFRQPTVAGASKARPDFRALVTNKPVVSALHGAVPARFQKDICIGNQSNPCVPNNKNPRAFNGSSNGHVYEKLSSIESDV

Row | Compound | Emax [1, 3] [%] | Emax [2, 4] [%] | EC50 [1] [nM] | EC50 [2] [nM] | EC50 [1, 5] [nM] | EC50 [2, 6] [nM] | Emax ([1]; HEK293, read-out: Avg Emax 2A (%)) [%] | Emax [2] [%]
1 | C[C@H](CCC[C@@H](C)O)[C@H]1CC[C@H]2[C@@H]3CC[C@H]4C[C@](O)(C(F)(F)F)CC[C@]4(C)[C@H]3CC[C@]12C [Compound 112] | 92.6 | 151 | – | – | – | – | – | –
2 | CC(C)C(O)CC[C@@H](C)[C@H]1CC[C@H]2[C@@H]3CC[C@H]4C[C@@](C)(O)CC[C@@H]4[C@H]3CC[C@]12C (some centres unmarked) [Compound 175] | 367 | 279 | 574 | 288 | – | – | – | –
3 | CC[C@]1(O)CC[C@H]2C(=CC[C@@H]3[C@@H]2CC[C@]2(C)[C@@H]([C@H](C)CCCC(C)(C)O)CC[C@@H]32)C1 [Compound 194] | 162 | 192 | – | – | 200 | – | – | –
4 | C[C@H](CCC(O)c1cccnc1)[C@H]1CC[C@H]2[C@@H]3CC=C4C[C@@](C)(O)CC[C@]4(C)[C@H]3CC[C@]12C (some centres unmarked) [Compound 255] | 159 | 132 | – | – | 646 | 153 | – | –
5 | C[C@H](CCC(O)c1ccccc1)[C@H]1CC[C@H]2[C@@H]3CC=C4C[C@@](C)(O)CC[C@]4(C)[C@H]3CC[C@]12C (some centres unmarked) [Compound 356] | 59.6 | 156 | 415 | 923 | – | – | – | –
6 | CC[C@]1(O)CC[C@H]2[C@@H](CC[C@@H]3[C@@H]2CC[C@]2(C)[C@@H]([C@H](C)CCCO)CC[C@@H]32)C1 [Compound 376] | 49.9 | 59.8 | > 10000 | > 10000 | – | – | – | –
7 | C[C@H](CCC(C)(O)c1ccccc1)[C@H]1CC[C@H]2[C@@H]3CC=C4C[C@@](C)(O)CC[C@]4(C)[C@H]3CC[C@]12C (some centres unmarked) [Compound 456] | – | – | – | – | – | – | 53.4 | 74.8
8 | CC[C@]1(O)CC[C@H]2[C@@H](CC[C@@H]3[C@@H]2CC[C@]2(C)[C@@H]([C@H](C)CCC(O)C(C)C)CC[C@@H]32)C1 (some centres unmarked) [Compound 476] | 811 | 399 | 406 | 189 | – | – | – | –
9 | C[C@H](CCC(O)(c1ccccc1)C(F)(F)F)[C@H]1CC[C@H]2[C@@H]3CC=C4C[C@@](C)(O)CC[C@]4(C)[C@H]3CC[C@]12C (some centres unmarked) [Compound 559] | 204 | 373 | – | – | – | – | – | –
10 | C[C@H](CCC(O)Cc1ccccc1)[C@H]1CC[C@H]2[C@@H]3CC=C4C[C@@](C)(O)CC[C@]4(C)[C@H]3CC[C@]12C (some centres unmarked) [Compound 660] | 195 | 281 | – | – | – | – | – | –
11 | CC[C@]1(O)CC[C@H]2[C@@H](CC[C@@H]3[C@@H]2CC[C@]2(C)[C@@H]([C@H](C)CCC(C)(C)O)CC[C@@H]32)C1 [Compound 679] | 105 | 172 | – | – | 5110 | 280 | – | –
12 | CC[C@]1(O)CC[C@@]2(C)C(=CC[C@H]3[C@@H]4CC[C@H]([C@H](C)CCC(O)c5ccccc5)[C@@]4(C)CC[C@@H]32)C1 (some centres unmarked) [Compound 761] | 302 | 197 | 476 | 249 | – | – | – | –
13 | CC[C@]1(O)CC[C@H]2C(=CC[C@@H]3[C@@H]2CC[C@]2(C)[C@@H]([C@H](C)CCC(C)(C)O)CC[C@@H]32)C1 [Compound 780] | 132 | 170 | – | – | 341 | 263 | – | –
14 | CC[C@]1(O)CC[C@@]2(C)C(=CC[C@H]3[C@@H]4CC[C@H]([C@H](C)CC[C@@H](O)c5ccccc5)[C@@]4(C)CC[C@@H]32)C1 [Compound 861] | 183 | 390 | 200 | 247 | – | – | – | –
15 | CC[C@]1(O)CC[C@@]2(C)C(=CC[C@H]3[C@@H]4CC[C@H]([C@H](C)CC[C@H](O)c5ccccc5)[C@@]4(C)CC[C@@H]32)C1 [Compound 961] | 138 | 97.4 | 617 | 180 | – | – | – | –
16 | C[C@H](CCC(C)(C)O)[C@H]1CC[C@H]2[C@@H]3CC=C4C[C@](O)(C(F)(F)F)CC[C@]4(C)[C@H]3CC[C@]12C [Compound 1839] | 493 | 568 | – | – | 295 | – | – | –

Row | Compound | Emax [1, 3] [%] | Emax [2, 4] [%] | EC50 [1] [nM] | EC50 [2] [nM] | EC50 [1, 5] [nM] | EC50 [2, 6] [nM] | Emax ([1]; HEK293, read-out: Avg Emax 2A (%)) [%] | Emax [2] [%]
17 | C[C@H](CCC1(O)CCOC1)[C@H]1CC[C@H]2[C@@H]3CC[C@H]4C[C@](O)(C(F)(F)F)CC[C@]4(C)[C@H]3CC[C@]12C (some centres unmarked) [Compound 1967] | 347 | 374 | 171 | 113 | – | – | – | –
18 | C[C@H](CC[C@H](O)C1CCOCC1)[C@H]1CC[C@H]2[C@@H]3CC[C@H]4C[C@](O)(C(F)(F)F)CC[C@]4(C)[C@H]3CC[C@]12C [Compound 2080] | 77.2 | 147 | 165 | 187 | – | – | – | –
19 | C[C@H](CC[C@@H](O)C1CCOCC1)[C@H]1CC[C@H]2[C@@H]3CC[C@H]4C[C@](O)(C(F)(F)F)CC[C@]4(C)[C@H]3CC[C@]12C [Compound 2081] | 126 | 215 | 129 | 175 | – | – | – | –
20 | C[C@H](O)CCC[C@@H](C)[C@H]1CC[C@H]2[C@@H]3CC[C@H]4C[C@](O)(C(F)(F)F)CC[C@]4(C)[C@H]3CC[C@]12C [Compound 2113] | 403 | 285 | – | – | – | – | – | –
21 | C[C@H](CC[C@H](O)C(C)(C)C)[C@H]1CC[C@H]2[C@@H]3CC[C@H]4C[C@](O)(C(F)(F)F)CC[C@]4(C)[C@H]3CC[C@]12C [Compound 2184] | – | – | 65.8 | 80 | – | – | – | –
22 | C[C@H](CC[C@@H](C)O)[C@H]1CC[C@H]2[C@@H]3CC[C@H]4C[C@](O)(C(F)(F)F)CC[C@]4(C)[C@H]3CC[C@]12C [Compound 2285] | 205 | 220 | 764 | 494 | – | – | – | –
23 | C[C@H](CCC1(O)CCC(F)(F)CC1)[C@H]1CC[C@H]2[C@@H]3CC=C4C[C@](O)(C(F)(F)F)CC[C@]4(C)[C@H]3CC[C@]12C [Compound 2392] | – | – | 104 | 47.5 | – | – | – | –
24 | C[C@H](CCCO)[C@H]1CC[C@H]2[C@@H]3CC[C@H]4C[C@](O)(C(F)(F)F)CC[C@]4(C)[C@H]3CC[C@]12C [Compound 2499] | 180 | 238 | 768 | 751 | – | – | – | –
25 | C[C@H](CCC(O)C(C)(C)C)[C@H]1CC[C@H]2[C@@H]3CC=C4C[C@](O)(C(F)(F)F)CC[C@]4(C)[C@H]3CC[C@]12C (some centres unmarked) [Compound 2500] | – | – | 63.3 | 91.1 | – | – | – | –
26 | C[C@H](O)CC[C@@H](C)[C@H]1CC[C@H]2[C@@H]3CC=C4C[C@](O)(C(F)(F)F)CC[C@]4(C)[C@H]3CC[C@]12C [Compound 2602] | 163 | 367 | 289 | 279 | – | – | – | –
27 | C[C@H](CC[C@@]1(O)CCOC1)[C@H]1CC[C@H]2[C@@H]3CC[C@H]4C[C@](O)(C(F)(F)F)CC[C@]4(C)[C@H]3CC[C@]12C [Compound 2706] | 96.8 | 139 | > 10000 | 124 | – | – | – | –
28 | C[C@H](CC[C@]1(O)CCOC1)[C@H]1CC[C@H]2[C@@H]3CC[C@H]4C[C@](O)(C(F)(F)F)CC[C@]4(C)[C@H]3CC[C@]12C [Compound 2707] | 113 | 259 | – | – | 119 | 103 | – | –
29 | C[C@H](CCC(O)C(F)(F)F)[C@H]1CC[C@H]2[C@@H]3CC[C@H]4C[C@](O)(C(F)(F)F)CC[C@]4(C)[C@H]3CC[C@]12C (some centres unmarked) [Compound 2918] | 532 | 506 | 298 | 339 | – | – | – | –
30 | C[C@H](CC[C@](C)(O)C(F)(F)F)[C@H]1CC[C@H]2[C@@H]3CC=C4C[C@](O)(C(F)(F)F)CC[C@]4(C)[C@H]3CC[C@]12C [Compound 3035] | – | – | 61 | 75.7 | – | – | – | –
31 | C[C@H](CCC[C@@H](O)C(F)(F)F)[C@H]1CC[C@H]2[C@@H]3CC[C@H]4C[C@](O)(C(F)(F)F)CC[C@]4(C)[C@H]3CC[C@]12C [Compound 3114] | 318 | 294 | – | – | 382 | 244 | – | –
